Read-outs that look alike come from different tables or passages of the source.
What was measured:
[1] = tested on: erythrocyte AChE; experiment: PBK modeling-facilitated QIVIVE and BMD analysis, rat; conditions: erythrocyte AChE inhibition, acute oral FNT exposure
Experimental: (§1) For toxicity prediction, the maximum blood FNO concentration was used as a dose metric relating AChE inhibition to acute FNT exposure (see section 3.3). Since the in vitro AChE inhibition under increasing FNO concentrations was tested in rat and human blood, these nominal concentrations could be used directly as the biological effective concentrations (in vivo maximum blood FNO concentrations), and no extra correction for differences in in vitro and in vivo protein binding was deemed necessary. Then the corresponding FNT dose levels resulting in these in vivo concentrations were derived via PBK modeling-facilitated reverse dosimetry. In doing so, the in vitro concentration–response relationship was converted to the predicted in vivo dose-dependent erythrocyte AChE inhibition, which was then compared to available in vivo toxicity data in rats and humans.[8],[39]
(§2) BMD modeling was used to derive POD values from the predicted in vivo dose-dependent data sets for rats and humans. A BMD value resulting in a 10% benchmark response (BMR) change with lower 95% confidence limit was defined as BMDL10, and the obtained values for rats and humans were evaluated against the reported NOAELs.[1],[11]−[13] Details and results of BMD analysis are provided in the Supporting Information. […]
BMD modeling was used to derive POD values from the predicted in vivo dose-response curves for rats and humans. […]

[2] = tested on: erythrocyte AChE; experiment: PBK modeling-facilitated QIVIVE and BMD analysis, human
Experimental: as §1, §2
BMD modeling was used to derive POD values from the predicted in vivo dose-response curves for rats and humans. The EFSA web-tool (https://efsa.openanalytics.eu/) integrated with the R package PROAST (version 70.0) developed by the Dutch National Institute for Public Health and the Environment (RIVM) was used for the BMD analysis. A BMD value resulting in a 10% benchmark response (BMR) change with lower 95% confidence limit was defined as BMDL10. Briefly, the continuous data were fitted to a set of models (Exponential, Hill, Inverse Exponential, and Log-Normal family models), and all fitted models excluding the FULL and NULL models were used for model averaging via a weighted average model. […]

[3] = tested on: erythrocyte AChE; experiment: Reported NOAELs from in vivo rat toxicity studies
Experimental: Acute exposure to FNT will cause neurotoxic symptoms in mammals due to AChE inhibition and subsequent acetylcholine accumulation at synaptic clefts.[10] Several no-observed-adverse-effect levels (NOAELs) derived from different in vivo rat or human toxicity data sets have been reported by different organizations, even though the same endpoint (erythrocyte AChE inhibition) was chosen. Specifically, NOAELs of 0.25 and 1.3 mg/kg BW for rats have been set by the US Environmental Protection Agency (US EPA)[11] and European Food Safety Authority (EFSA),[1] respectively, and NOAELs of 0.33 and 0.36 mg/kg BW for humans have been derived by Australian Pesticides and Veterinary Medicines Authority (APVMA)[12] and the Joint Food and Agriculture Organization of the United Nations/World Health Organization Meeting on Pesticide Residues (JMPR),[13] respectively. […]
A NOAEL of 1.3 mg/kg BW was reported by EFSA[1] from a 90 day rat study[44] considering the impaired body weight gain and reduction in erythrocyte and brain cholinesterase activity as the critical effects. The US EPA[11] reported a 5.2-fold lower NOAEL (0.25 mg/kg BW) based on the measured erythrocyte AChE inhibition after 2 weeks of FNT dosing in a 92 week rat study.[45] […]

[4] = tested on: erythrocyte AChE; conditions: human, highest dose tested, cited from earlier work
[5] = tested on: erythrocyte AChE; conditions: cited from earlier work
[6] = humans, oral exposure; cited from earlier work

For `COP(=S)(OC)Oc1ccc([N+](=O)[O-])c(C)c1` [FNT, O,O-dimethyl O-4-nitro-m-tolyl phosphorothioate], which “predicted BMDL10 (POD)” value ([1]; 10% BMR, lower 95% confidence limit) is on record?
The value was 1.30 mg/kg BW.

What about the BMDU10 ([1]; upper confidence limit) of the same compound?
The BMDU10 was 1.71 mg/kg BW.

What about the “predicted POD for humans, fold lower than that of rats” value ([2]; BMDL10 rat vs human) of the same compound?
Its value is 5 fold.

What about the “predicted BMDL10 (POD)” value ([2]; human, erythrocyte AChE inhibition, acute oral FNT exposure, 10% BMR, lower 95% confidence limit) of the same compound?
Its value is 0.26 mg/kg BW.

And the BMDU10 ([2]; human, erythrocyte AChE inhibition, acute oral FNT exposure, upper confidence limit)?
The BMDU10 was 0.66 mg/kg BW.

And the “US EPA rat NOAEL, fold lower than EFSA rat NOAEL” value [3]?
Its value is 5.2 fold.

What about the “reported NOAEL” value ([4]; APVMA, single dose human study) of the same compound?
Its value is 0.33 mg/kg BW.

And the “reported NOAEL” value ([4]; JMPR, 4 day study in human volunteers)?
The value was 0.36 mg/kg BW.

What about the “acute reference dose (ARfD)” value ([5]; JMPR) of the same compound?
The value was 0.04 mg/kg BW/day.

What about the “acute reference dose (ARfD)” value ([5]; US EPA) of the same compound?
The value was 0.0025 mg/kg BW/day.

What about the “fraction of the dose absorbed (Fa)” value [6] of the same compound?
The value was 0.7.

Reference: PMC10720383, “Acetylcholinesterase Inhibition in Rats and Humans Following Acute Fenitrothion Exposure Predicted by Physiologically Based Kinetic Modeling-Facilitated Quantitative In Vitro to In Vivo Extrapolation” (Environmental Science & Technology, 2023)
